Three molecules from ChEMBL document CHEMBL3526033, “Identification of human liver cytochrome P450 enzymes involved in the metabolism of SCH 530348 (Vorapaxar), a potent oral thrombin protease-activated receptor 1 antagonist” (Drug Metab Dispos, 2011) can be followed below.

In series [1] the target is T1, Cytochrome P450 1A1 (Homo sapiens, UniProt P04798).
T1 sequence (P04798 whole entry): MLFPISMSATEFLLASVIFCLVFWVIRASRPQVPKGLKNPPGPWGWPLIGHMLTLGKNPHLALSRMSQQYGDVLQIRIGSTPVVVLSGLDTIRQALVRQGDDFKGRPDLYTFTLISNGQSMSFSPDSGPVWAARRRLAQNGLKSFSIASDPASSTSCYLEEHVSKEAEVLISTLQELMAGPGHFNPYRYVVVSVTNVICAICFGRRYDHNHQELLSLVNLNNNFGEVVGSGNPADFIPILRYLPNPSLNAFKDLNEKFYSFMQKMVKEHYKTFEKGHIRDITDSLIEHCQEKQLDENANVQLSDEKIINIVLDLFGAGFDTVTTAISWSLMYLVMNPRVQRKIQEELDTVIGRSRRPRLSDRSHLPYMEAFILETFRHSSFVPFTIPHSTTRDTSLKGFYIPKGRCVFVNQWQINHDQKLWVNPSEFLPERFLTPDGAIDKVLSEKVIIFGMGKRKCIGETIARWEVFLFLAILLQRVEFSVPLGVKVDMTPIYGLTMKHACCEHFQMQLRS
In words: Activity of human recombinant CYP1A1 assessed as enzyme-mediated drug metabolism treated with 25 uM vorapaxar after 120 mins by LC-MS/MS analysis in presence of NADPH. The format is ADME. The conditions noted are these: 2 h.

Another series has as its target T2, Cytochrome P450 2J2 (Homo sapiens, UniProt P51589).
T2 sequence (P51589 whole entry): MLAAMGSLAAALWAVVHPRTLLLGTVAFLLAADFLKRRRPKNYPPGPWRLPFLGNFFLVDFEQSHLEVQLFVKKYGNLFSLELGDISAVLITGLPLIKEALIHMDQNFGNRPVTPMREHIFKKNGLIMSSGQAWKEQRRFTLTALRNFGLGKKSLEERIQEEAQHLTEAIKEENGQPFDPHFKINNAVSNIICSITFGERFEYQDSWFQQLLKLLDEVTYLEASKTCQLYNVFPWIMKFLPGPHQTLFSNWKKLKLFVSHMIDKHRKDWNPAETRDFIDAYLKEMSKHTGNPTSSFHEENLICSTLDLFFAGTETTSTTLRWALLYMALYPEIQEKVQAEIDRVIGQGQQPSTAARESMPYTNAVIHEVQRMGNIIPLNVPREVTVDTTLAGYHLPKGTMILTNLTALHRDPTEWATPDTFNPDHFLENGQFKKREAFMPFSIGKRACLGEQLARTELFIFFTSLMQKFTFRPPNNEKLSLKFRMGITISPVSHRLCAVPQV
In words: Drug metabolism in human liver microsomes assessed as CYP2J2-mediated (3R,3aS,4S,4aR,7R,8aR,9aR)-7-amino-4-((E)-2-(5-(3-fluorophenyl)pyridin-2-yl)vinyl)-3-methyldecahydronaphtho[2,3-c]furan-1(3H)-one formation at 25 uM after 120 mins by LC-MS/MS analysis. The format is ADME. As to conditions: 2 h. Background: Microsomes from liver hold many membrane-bound enzymes, among them those of drug oxidation.

The next series deals with Cytochrome P450 2C18 (Homo sapiens, UniProt P33260). In words: Activity of human recombinant CYP2C18 assessed as enzyme-mediated drug metabolism treated with 25 uM vorapaxar after 120 mins by LC-MS/MS analysis in presence of NADPH. The format is ADME. As to conditions: 2 h.
Chain of Cytochrome P450 2C18 (P33260 whole entry): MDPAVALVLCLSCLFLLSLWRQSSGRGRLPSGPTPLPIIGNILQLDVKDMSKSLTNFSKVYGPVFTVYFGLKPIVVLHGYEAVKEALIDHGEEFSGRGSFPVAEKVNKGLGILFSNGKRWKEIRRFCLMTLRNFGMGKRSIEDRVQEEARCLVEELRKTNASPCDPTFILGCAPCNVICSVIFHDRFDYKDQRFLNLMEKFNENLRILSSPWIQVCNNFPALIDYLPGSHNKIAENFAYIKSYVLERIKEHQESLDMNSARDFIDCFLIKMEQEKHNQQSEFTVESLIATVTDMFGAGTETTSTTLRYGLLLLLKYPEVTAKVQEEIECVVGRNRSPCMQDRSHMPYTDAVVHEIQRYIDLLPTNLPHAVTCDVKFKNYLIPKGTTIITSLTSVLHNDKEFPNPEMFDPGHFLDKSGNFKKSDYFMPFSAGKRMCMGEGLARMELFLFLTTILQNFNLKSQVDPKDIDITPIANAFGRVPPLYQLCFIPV
The target in series [2] is T3, Cytochrome P450 4A11 (Homo sapiens, UniProt Q02928). In words: Activity of human recombinant CYP4A11 assessed as enzyme-mediated drug metabolism treated with 25 uM vorapaxar after 120 mins by LC-MS/MS analysis in presence of NADPH. The format is ADME. The conditions noted are these: 2 h.
T3 sequence (Q02928 whole entry): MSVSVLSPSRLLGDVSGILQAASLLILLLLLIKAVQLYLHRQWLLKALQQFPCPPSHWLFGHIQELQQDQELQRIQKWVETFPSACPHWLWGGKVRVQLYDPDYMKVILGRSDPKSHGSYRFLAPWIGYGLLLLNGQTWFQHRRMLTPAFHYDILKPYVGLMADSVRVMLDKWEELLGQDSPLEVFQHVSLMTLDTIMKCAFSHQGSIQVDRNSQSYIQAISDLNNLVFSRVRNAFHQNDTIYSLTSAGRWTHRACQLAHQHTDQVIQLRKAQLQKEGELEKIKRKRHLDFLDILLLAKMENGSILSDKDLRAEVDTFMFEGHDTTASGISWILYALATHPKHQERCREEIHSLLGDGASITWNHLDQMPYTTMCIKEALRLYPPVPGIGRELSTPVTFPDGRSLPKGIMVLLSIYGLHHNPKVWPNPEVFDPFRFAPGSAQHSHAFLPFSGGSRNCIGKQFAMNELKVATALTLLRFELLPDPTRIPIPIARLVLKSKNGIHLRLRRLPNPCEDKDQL
The target in the next series is Cytochrome P450 2C19 (Homo sapiens, UniProt P33261). In words: Activity of human recombinant CYP2C19 assessed as enzyme-mediated 2-hydroxyethyl (1R,3aR,4aR,6R,8aR,9S,9aS)-9-((E)-2-(5-(3-fluorophenyl)pyridin-2-yl)vinyl)-1-methyl-3-oxododecahydronaphtho[2,3-c]furan-6-ylcarbamate formation at 25 uM after 120 mins by LC-MS/MS analysis in presence of NADPH. The series is classed as ADME. As to conditions: 2 h.
Chain of Cytochrome P450 2C19 (P33261 whole entry): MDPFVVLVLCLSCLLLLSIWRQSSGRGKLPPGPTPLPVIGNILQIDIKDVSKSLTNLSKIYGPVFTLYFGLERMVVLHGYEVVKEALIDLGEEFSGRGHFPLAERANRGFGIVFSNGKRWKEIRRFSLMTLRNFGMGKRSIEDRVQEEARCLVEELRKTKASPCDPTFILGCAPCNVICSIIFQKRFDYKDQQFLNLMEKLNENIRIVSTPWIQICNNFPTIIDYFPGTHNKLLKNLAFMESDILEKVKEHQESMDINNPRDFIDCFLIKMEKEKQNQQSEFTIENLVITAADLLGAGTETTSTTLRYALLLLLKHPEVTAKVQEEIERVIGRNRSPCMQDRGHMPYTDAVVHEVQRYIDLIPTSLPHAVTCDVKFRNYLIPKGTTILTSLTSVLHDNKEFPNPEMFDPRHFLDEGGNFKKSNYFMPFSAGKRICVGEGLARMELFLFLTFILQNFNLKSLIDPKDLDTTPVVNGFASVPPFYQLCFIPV

Series [3] deals with T3, Cytochrome P450 4A11. In words: Activity of human recombinant CYP4A11 assessed as enzyme-mediated 2-hydroxyethyl (1R,3aR,4aR,6R,8aR,9S,9aS)-9-((E)-2-(5-(3-fluorophenyl)pyridin-2-yl)vinyl)-1-methyl-3-oxododecahydronaphtho[2,3-c]furan-6-ylcarbamate formation at 25 uM after 120 mins by LC-MS/MS analysis in presence of NADPH. The series is classed as ADME. The conditions noted are these: 2 h.

The target of series [4] is T1, Cytochrome P450 1A1. In words: Activity of human recombinant CYP1A1 assessed as enzyme-mediated drug metabolism at 10 uM after 120 mins by LC-MS/MS analysis. The format is ADME. The conditions noted are these: 2 h.
Series [5] is described as follows: Drug metabolism in human lung microsomes assessed as 2-hydroxyethyl (1R,3aR,4aR,6R,8aR,9S,9aS)-9-((E)-2-(5-(3-fluorophenyl)pyridin-2-yl)vinyl)-1-methyl-3-oxododecahydronaphtho[2,3-c]furan-6-ylcarbamate formation at 25 uM after 120 mins by LC-MS/MS analysis in presence of NADPH. The format is ADME, microsome. The conditions noted are these: 2 h.
The subject of series [6] is Liver microsome. The series is described as follows: Drug metabolism in human liver microsomes assessed as (3R,3aS,4S,4aR,7R,8aR,9aR)-7-amino-4-((E)-2-(5-(3-fluorophenyl)pyridin-2-yl)vinyl)-3-methyldecahydronaphtho[2,3-c]furan-1(3H)-one formation at 10 to 25 uM after 120 mins by LC-MS/MS analysis in presence of ketoconazole. The format is ADME. As to conditions: 2 h.

The subject of series [7] is Liver microsome. In words: Drug metabolism in human liver microsomes assessed as 2-hydroxyethyl (1R,3aR,4aR,6R,8aR,9S,9aS)-9-((E)-2-(5-(3-fluorophenyl)pyridin-2-yl)vinyl)-1-methyl-3-oxododecahydronaphtho[2,3-c]furan-6-ylcarbamate formation at 25 uM after 120 mins by LC-MS/MS analysis in presence of CYP3A4-specific inhibitory monoclonal antibody. The series is classed as ADME. The conditions noted are these: 2 h.

Series [8] has as its system Liver microsome. In words: Drug metabolism in human liver microsomes assessed as (3R,3aS,4S,4aR,7R,8aR,9aR)-7-amino-4-((E)-2-(5-(3-fluorophenyl)pyridin-2-yl)vinyl)-3-methyldecahydronaphtho[2,3-c]furan-1(3H)-one formation at 10 to 25 uM after 120 mins by LC-MS/MS analysis in presence of CYP3A4-specific inhibitory monoclonal antibody. The format is ADME. The conditions noted are these: 2 h.

The test system of series [9] is Liver microsome. In words: Drug metabolism in human liver microsomes assessed as (3R,3aS,4S,4aR,7R,8aR,9aR)-7-amino-4-((E)-2-(5-(3-fluorophenyl)pyridin-2-yl)vinyl)-3-methyldecahydronaphtho[2,3-c]furan-1(3H)-one formation at 10 to 25 uM after 120 mins by LC-MS/MS analysis in presence of CYP2B6-specific inhibitory antibody. The format is ADME. The conditions noted are these: 2 h.

The next series concerns the target Cytochrome P450 3A4 (Homo sapiens, UniProt P08684). In words: Drug metabolism assessed as human recombinant CYP3A4-mediated 2-hydroxyethyl (1R,3aR,4aR,6R,8aR,9S,9aS)-9-((E)-2-(5-(3-fluorophenyl)pyridin-2-yl)vinyl)-1-methyl-3-oxododecahydronaphtho[2,3-c]furan-6-ylcarbamate formation at 25 uM after 120 mins by LC-MS/MS analysis in presence of astemizole. The format is ADME. As to conditions: recombinant enzyme, 2 h.

The target of another series is CYP1A1 (Homo sapiens, UniProt P04798). In words: Activity of human recombinant CYP1A1 assessed as enzyme-mediated drug metabolism at 10 uM after 120 mins by LC-MS/MS analysis in presence of NADPH. The format is ADME. As to conditions: read-out: Compound recovery.

Chain of Cytochrome P450 3A4 (P08684 whole entry): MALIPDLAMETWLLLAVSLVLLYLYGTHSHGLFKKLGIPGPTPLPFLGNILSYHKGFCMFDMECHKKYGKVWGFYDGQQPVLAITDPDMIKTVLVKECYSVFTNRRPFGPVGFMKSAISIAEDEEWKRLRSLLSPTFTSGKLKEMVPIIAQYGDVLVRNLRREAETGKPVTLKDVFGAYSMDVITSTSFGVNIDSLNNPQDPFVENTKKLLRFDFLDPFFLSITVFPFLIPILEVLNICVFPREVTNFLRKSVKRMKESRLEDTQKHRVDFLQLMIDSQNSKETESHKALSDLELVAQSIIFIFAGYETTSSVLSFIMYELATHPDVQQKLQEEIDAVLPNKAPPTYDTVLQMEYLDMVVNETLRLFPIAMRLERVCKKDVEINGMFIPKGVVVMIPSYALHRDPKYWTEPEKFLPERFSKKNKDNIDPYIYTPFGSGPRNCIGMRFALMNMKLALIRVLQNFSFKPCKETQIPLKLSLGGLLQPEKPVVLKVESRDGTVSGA

In the case of `C[C@H]1OC(=O)[C@@H]2C[C@@H]3C[C@H](NC(=O)OCCO)CC[C@H]3[C@H](/C=C/c3ccc(-c4cccc(F)c4)cn3)[C@H]12`, the Drug metabolism entry at Cytochrome P450 1A1 [1], on Cytochrome P450 2J2, on Cytochrome P450 2C18 and on Cytochrome P450 4A11 [2] was “metabolite_detected” each time.

Take `CCOC(=O)N[C@@H]1CC[C@@H]2[C@@H](C1)C[C@H]1C(=O)O[C@H](C)[C@H]1[C@H]2/C=[14CH]/c1ccc(-c2cccc(F)c2)cn1`: the Drug metabolism result on Cytochrome P450 2C19 is given as “metabolite_detected”; at Cytochrome P450 4A11 [3], “metabolite_detected”; at Cytochrome P450 1A1 [4], “metabolite_not_detected”.

As to `CCOC(=O)N[C@@H]1CC[C@@H]2[C@@H](C1)C[C@H]1C(=O)O[C@H](C)[C@H]1[C@H]2/C=C/c1ccc(-c2cccc(F)c2)cn1` [VORAPAXAR], the Drug metabolism entry is on record as “metabolite_detected” in series [5]; “metabolite_not_detected” in the series with Liver microsome [6]; “metabolite_not_detected” with Liver microsome [7]; “metabolite_not_detected” in the series with Liver microsome [8]; “metabolite_detected” in the series on Liver microsome [9]; “metabolite_not_detected” on Cytochrome P450 3A4. Moreover, the remaining at 2 h, 10 µM on CYP1A1 amounted to 96.3%.
